According to patent US10662204B2 (PFIZER INC., priority 2018, dated 2020):

Tests used:
[1] = biological target: T1, GDP-loaded KRAS (1-169) G12C, C51S, C80L, C118S (Homo sapiens, UniProt P01116, C118S/C51S/C80L/G12C); assay: Mass Spectrometry Reactivity Assay (MSRA): covalent adduct of compound and KRAS G12C, Percent Modification; format: binding; conditions: for MSRA (% modification) 10 μM 0.50 hr / MSRA (% modification) 10 μM 0.25 hr: 10 μM compound; for MSRA (% modification) 5.0 μM 0.017 hr / MSRA (% modification) 5.0 μM 0.25 hr: 5.0 μM compound
T1 construct: GDP-loaded KRAS (1-169) G12C, C51S, C80L, C118S
Outline: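 GDP-loaded KRAS(1-169) G12C/C51S/C80L/C118S at 5 μM in 25 mM Hepes pH 7.5, 200 mM NaCl, 5% glycerol incubated at RT with compound (typically 5 or 10 μM final, 1% DMSO). Quenched in formic acid at 1-60 min; intact-protein LC-TOF MS gives % modification = modified/(modified+unmodified).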

KRAS G12C = KRAS G12C (Homo sapiens, UniProt P01116, G12C); assay: Cell Activity Assay: accumulation of GDP-bound KRAS G12C in MIAPaCa-2 cells (Raf-1 RBD capture, MSD readout); format: cell-based; parameters: endogenous in cells; host or cells: MIAPaCa-2; conditions: 6 hours, assay limit is 30.00
Outline: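 MIAPaCa-2 cells exposed 6 h at 37 °C to 3-fold compound dilutions (0.3% DMSO final), then lysed. Active GTP-KRAS captured on Raf-1 RBD-coated plates, detected with anti-pan-Ras and SULFO-TAG secondary by MSD electrochemiluminescence. Signal normalized to DMSO and maximum inhibition; IC50 from 4-parameter fit.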

| Compound | MSRA (% modification) 10 μM 0.50 hr [1] [%] | IC50 (KRAS G12C) [µM] | MSRA (% modification) 10 μM 0.25 hr [1] [%] | MSRA (% modification) 5.0 μM 0.017 hr [1] [%] | MSRA (% modification) 5.0 μM 0.25 hr [1] [%] |
| --- | --- | --- | --- | --- | --- |
| C=CC(=O)N1C[C@H](C)N(c2nc(N3CC(N(C)C)C3)nc3c(Oc4c(C)ccc5[nH]ncc45)nc(C)cc23)C[C@H]1C [Example 06B, 1-[(2R,5S)-4-{2-[3-(Dimethylamino)azetidin-1-yl]-6-methyl-8-[(5-methyl-1H-indazol-4-yl)oxy]pyrido[3,4-d]pyrimidin-4-yl}-2,5-dimethylpiperazin-1-yl]prop-2-en-1-one] | 9 | > 30 | – | – | – |
| C=CC(=O)N1CCN(c2nc(OCc3nncn3C)nc3c(Oc4c(C)ccc5[nH]ncc45)cccc23)CC1 [Example 07F, 1-(4-{8-[(5-methyl-1H-indazol-4-yl)oxy]-2-[(4-methyl-4H-1,2,4-triazol-3-yl)methoxy]quinazolin-4-yl}piperazin-1-yl)prop-2-en-1-one] | 75 | 21.2 | 74 | – | 22 |
| C=CC(=O)N1CCN(c2ncnc3c(Oc4c(Cl)c(F)cc5[nH]ncc45)nc(Cl)cc23)[C@H](C)C1 [Example 40A, 1-[(3R)-4-{6-chloro-8-[(5-chloro-6-fluoro-1H-indazol-4-yl)oxy]pyrido[3,4-d]pyrimidin-4-yl}-3-methylpiperazin-1-yl]prop-2-en-1-one] | – | 20.9 | 6 | – | – |
| C=CC(=O)N1CCN(c2nc(OCC3CCN(C(C)=O)C3)nc3c(Oc4c(Cl)c(F)cc5[nH]ncc45)nccc23)CC1 (stereo not shown) [Example 05J, 1-(4-{2-[(1-acetylpyrrolidin-3-yl)methoxy]-8-[(5-chloro-6-fluoro-1H-indazol-4-yl)oxy]pyrido[3,4-d]pyrimidin-4-yl}piperazin-1-yl)prop-2-en-1-one] | – | 1.07 | – | – | 81 |
| C=CC(=O)N1CCN(c2ncnc3c(Oc4c(Cl)c(F)cc5[nH]ncc45)nccc23)C[C@H]1C [Example 25A, 1-[(2R)-4-{8-[(5-chloro-6-fluoro-1H-indazol-4-yl)oxy]pyrido[3,4-d]pyrimidin-4-yl}-2-methylpiperazin-1-yl]prop-2-en-1-one] | 17 | 8.89 | – | – | – |
| C=CC(=O)N1CCN(c2nc(OCCCN(C)C)nc3c(Oc4c(Cl)c(C)cc5[nH]ncc45)cc(Cl)cc23)CC1 [Example 12E, 1-(4-{6-chloro-8-[(5-chloro-6-methyl-1H-indazol-4-yl)oxy]-2-[3-(dimethylamino)propoxy]quinazolin-4-yl}piperazin-1-yl)prop-2-en-1-one] | 79 | 0.835 | – | – | – |
| C=CC(=O)N1CCN(c2ncnc3c(Oc4cc(O)cc5ccccc45)nc(C(F)(F)F)cc23)CC1 [Example 01, 1-(4-{8-[(3-hydroxynaphthalen-1-yl)oxy]-6-(trifluoromethyl)pyrido[3,4-d]pyrimidin-4-yl}piperazin-1-yl)prop-2-en-1-one] | 27 | > 30 | – | – | – |
| C=CC(=O)N1CCN(c2nc(N3C[C@@](C)(O)[C@@H]3C)nc3c(Oc4c(Cl)c(F)cc5[nH]ncc45)nccc23)CC1 [Example 06J, 1-(4-{8-[(5-chloro-6-fluoro-1H-indazol-4-yl)oxy]-2-[(2S,3R)-3-hydroxy-2,3-dimethylazetidin-1-yl]pyrido[3,4-d]pyrimidin-4-yl}piperazin-1-yl)prop-2-en-1-one] | – | 0.638 | – | – | 33 |
| C=CC(=O)N1CCN(c2nc(OCCO)nc3c(Oc4c(Cl)c(F)cc5[nH]ncc45)nc(Cl)cc23)CC1 [Example 23G, 1-(4-{6-chloro-8-[(5-chloro-6-fluoro-1H-indazol-4-yl)oxy]-2-(2-hydroxyethoxy)pyrido[3,4-d]pyrimidin-4-yl}piperazin-1-yl)prop-2-en-1-one] | – | 0.688 | – | – | 35 |
| C=CC(=O)N1CCN(c2nc(O[C@H]3Cc4nccn4C3)nc3c(Oc4c(C)ccc5[nH]ncc45)cccc23)CC1 [Example 08F, 1-(4-{2-[(6S)-6,7-dihydro-5H-pyrrolo[1,2-a]imidazol-6-yloxy]-8-[(5-methyl-1H-indazol-4-yl)oxy]quinazolin-4-yl}piperazin-1-yl)prop-2-en-1-one] | 72 | 1.6 | 58 | – | – |
| C=CC(=O)N1CCN(c2nc(OCCN(C)C)nc3c(Oc4c(Cl)c(C)cc5[nH]ncc45)nccc23)CC1 [Example 05E, 1-(4-{8-[(5-chloro-6-methyl-1H-indazol-4-yl)oxy]-2-[2-(dimethylamino)ethoxy]pyrido[3,4-d]pyrimidin-4-yl}piperazin-1-yl)prop-2-en-1-one] | 76 | 0.559 | 72 | – | – |

The next compounds have a lower IC50 (KRAS G12C) than those just listed; values first:

| MSRA (% modification) 10 μM 0.50 hr [1] [%] | IC50 (KRAS G12C) [µM] | MSRA (% modification) 10 μM 0.25 hr [1] [%] | MSRA (% modification) 5.0 μM 0.017 hr [1] [%] | MSRA (% modification) 5.0 μM 0.25 hr [1] [%] | Compound |
| --- | --- | --- | --- | --- | --- |
| – | 0.505 | 53 | – | – | C=CC(=O)N1CCN(c2nc(N3CC(N(C)C)C3)nc3c(Oc4c(Cl)c(F)cc5[nH]ncc45)nccc23)CC1 [Example 02H, 1-(4-{8-[(5-chloro-6-fluoro-1H-indazol-4-yl)oxy]-2-[3-(dimethylamino)azetidin-1-yl]pyrido[3,4-d]pyrimidin-4-yl}piperazin-1-yl)prop-2-en-1-one] |
| – | 0.398 | – | – | 44 | C=CC(=O)N1CCN(c2nc(Oc3cnn(C)c3)nc3c(Oc4c(Cl)c(F)cc5[nH]ncc45)nccc23)CC1 [Example 09I, 1-(4-{8-[(5-chloro-6-fluoro-1H-indazol-4-yl)oxy]-2-[(1-methyl-1H-pyrazol-4-yl)oxy]pyrido [3,4-d]pyrimidin-4-yl}piperazin-1-yl)prop-2-en-1-one] |
| 76 | 0.391 | 70 | – | – | C=CC(=O)N1CCN(c2ncnc3c(Oc4c(Cl)c(Cl)cc5[nH]ncc45)nccc23)CC1 [Example 29A, 1-(4-{8-[(5,6-dichloro-1H-indazol-4-yl)oxy]pyrido[3,4-d]pyrimidin-4-yl}piperazin-1-yl)prop-2-en-1-one] |
| – | 0.265 | – | – | 65 | C=CC(=O)N1CCN(c2nc(Oc3cccnc3OC)nc3c(Oc4c(Cl)c(F)cc5[nH]ncc45)nccc23)CC1 [Example 08I, 1-(4-{8-[(5-chloro-6-fluoro-1H-indazol-4-yl)oxy]-2-[(2-methoxy-pyridin-3-yl)oxy]pyrido [3,4-d]pyrimidin-4-yl}piperazin-1-yl)prop-2-en-1-one] |
| – | 0.18 | 65 | – | – | C=CC(=O)N1CCN(c2nc(OC[C@H]3CCCN3C)nc3c(Oc4c(C)c(Cl)cc5[nH]ncc45)cccc23)CC1 [Example 21E, 1-[4-(8-[(6-chloro-5-methyl-1H-indazol-4-yl)oxy]-2-{[(2R)-1-methylpyrrolidin-2-yl]methoxy}quinazolin-4-yl)piperazin-1-yl]prop-2-en-1-one] |
| 82 | 0.164 | 81 | – | 80 | C=CC(=O)N1CCN(c2nc(N3CC(N(C)C)C3)nc3c(Oc4c(Cl)c(F)cc5[nH]ncc45)nc(Cl)cc23)CC1 [Example 05G, 1-(4-{6-chloro-8-[(5-chloro-6-fluoro-1H-indazol-4-yl)oxy]-2-[3-(dimethylamino)azetidin-1-yl]pyrido[3,4-d]pyrimidin-4-yl}piperazin-1-yl)prop-2-en-1-one] |
| 80 | 0.16 | 78 | – | 70 | C=CC(=O)N1CCN(c2nc(OCC(C)(C)O)nc3c(Oc4c(Cl)c(F)cc5[nH]ncc45)nc(Cl)cc23)CC1 [Example 13G, 1-(4-{6-chloro-8-[(5-chloro-6-fluoro-1H-indazol-4-yl)oxy]-2-(2-hydroxy-2-methylpropoxy)pyrido[3,4-d]pyrimidin-4-yl}piperazin-1-yl)prop-2-en-1-one] |
| – | 0.072 | 81 | – | – | C=CC(=O)N1CCN(c2nc(OC[C@H]3C[C@@H](F)CN3C)nc3c(Oc4c(Cl)c(F)cc5[nH]ncc45)nc(Cl)cc23)CC1 [Example 22G, 1-[4-(6-chloro-8-[(5-chloro-6-fluoro-1H-indazol-4-yl)oxy]-2-{[(2R,4R)-4-fluoro-1-methylpyrrolidin-2-yl]methoxy}pyrido[3,4-d]pyrimidin-4-yl)piperazin-1-yl]prop-2-en-1-one] |
| – | 0.005 | – | 82 | – | C=CC(=O)N1CCN(c2nc(O[C@@H]3CN(C)C[C@H]3OC)nc3c(Oc4c(Cl)c(Cl)cc5[nH]ncc45)nc(Cl)cc23)CC1 [Example 29G, 1-[4-(6-chloro-8-[(5,6-dichloro-1H-indazol-4-yl)oxy]-2-{[(3R,4R)-4-methoxy-1-methylpyrrolidin-3-yl]oxy}pyrido[3,4-d]pyrimidin-4-yl)piperazin-1-yl]prop-2-en-1-one] |
| – | 0.004 | – | 83 | 84 | C=CC(=O)N1CCN(c2nc(O[C@@H]3CN(C)C[C@H]3OC)nc3c(Oc4c(Cl)c(F)cc5[nH]ncc45)nc(Cl)cc23)CC1 [Example 24G, 1-[4-(6-chloro-8-[(5-chloro-6-fluoro-1H-indazol-4-yl)oxy]-2-{[(3R,4R)-4-methoxy-1-methylpyrrolidin-3-yl]oxy}pyrido[3,4-d]pyrimidin-4-yl)piperazin-1-yl]prop-2-en-1-one] |
